The source made the active and inactive calls.
Tests used:
[1] = target: Beta Lactamase (Pseudomonas aeruginosa, UniProt Q932Y6); assay: BLA reporter interference, concentration series – BLA reporter cells, FRET fluorescence, artefact control for NOD2-RIPK2 interaction inhibitor project, dose response (AID 651552); assay type: functional, cell-based
[2] = target: T1, Microphthalmia-associated transcription factor (Homo sapiens, UniProt O75030); assay: reducers of TRPM1 reporter luminescence, concentration series – cell-based, SK-MEL-5, cherry-picked, set 3, MITF inhibitor project, dose response (AID 493073); assay type: functional;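 note: SK-MEL-5 melanoma cells with luciferase driven by the MITF target TRPM1 promoter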
T1 sequence (O75030 whole entry): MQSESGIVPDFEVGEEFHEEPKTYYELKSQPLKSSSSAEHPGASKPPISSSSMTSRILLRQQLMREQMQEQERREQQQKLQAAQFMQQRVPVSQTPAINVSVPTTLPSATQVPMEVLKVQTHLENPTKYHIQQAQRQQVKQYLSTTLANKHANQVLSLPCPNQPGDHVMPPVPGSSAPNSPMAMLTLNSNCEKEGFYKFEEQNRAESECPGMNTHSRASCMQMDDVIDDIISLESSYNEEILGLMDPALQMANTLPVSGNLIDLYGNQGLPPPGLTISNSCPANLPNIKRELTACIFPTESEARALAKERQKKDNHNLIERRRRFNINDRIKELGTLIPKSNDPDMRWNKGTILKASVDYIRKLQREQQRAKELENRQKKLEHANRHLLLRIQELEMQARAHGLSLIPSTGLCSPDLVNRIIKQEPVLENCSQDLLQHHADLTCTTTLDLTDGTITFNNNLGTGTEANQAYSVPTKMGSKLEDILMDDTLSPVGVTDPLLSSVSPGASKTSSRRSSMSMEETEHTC

[3] = Fluorescence-based cell-based high throughput dose response assay for inhibitors of the interaction of nucleotide-binding oligomerization domain containing 2 (NOD2) and the receptor-interacting serine-threonine kinase 2 (RIPK2).; assay type: functional; conditions: Homo sapiens
[4] = target: Heat shock protein HSP 90-alpha (Homo sapiens, UniProt P07900); assay type: functional, organism-based
[5] = target: T2, X-box-binding protein 1 (Homo sapiens, UniProt P17861); assay type: functional, Cricetulus griseus;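 note: confirmatory dose-response counter-screen serving a CHOP assay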
T2 sequence (P17861 whole entry): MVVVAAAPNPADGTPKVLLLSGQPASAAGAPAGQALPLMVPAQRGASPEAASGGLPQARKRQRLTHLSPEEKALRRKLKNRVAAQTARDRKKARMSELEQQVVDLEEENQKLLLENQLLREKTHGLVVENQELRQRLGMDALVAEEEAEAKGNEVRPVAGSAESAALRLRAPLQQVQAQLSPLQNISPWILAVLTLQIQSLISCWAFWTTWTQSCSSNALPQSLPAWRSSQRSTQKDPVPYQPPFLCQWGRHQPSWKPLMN

[6] = target: T3, Corticotropin-releasing factor receptor 2/Corticotropin-releasing factor-binding protein (Homo sapiens, UniProt P24387+Q13324); assay: Dose Response confirmation of uHTS hits for small molecule antagonists of the CRF-binding protein and CRF-R2 receptor complex.; assay type: functional; conditions: read-out: IC50_Mean
T3 sequence (Q13324 whole entry): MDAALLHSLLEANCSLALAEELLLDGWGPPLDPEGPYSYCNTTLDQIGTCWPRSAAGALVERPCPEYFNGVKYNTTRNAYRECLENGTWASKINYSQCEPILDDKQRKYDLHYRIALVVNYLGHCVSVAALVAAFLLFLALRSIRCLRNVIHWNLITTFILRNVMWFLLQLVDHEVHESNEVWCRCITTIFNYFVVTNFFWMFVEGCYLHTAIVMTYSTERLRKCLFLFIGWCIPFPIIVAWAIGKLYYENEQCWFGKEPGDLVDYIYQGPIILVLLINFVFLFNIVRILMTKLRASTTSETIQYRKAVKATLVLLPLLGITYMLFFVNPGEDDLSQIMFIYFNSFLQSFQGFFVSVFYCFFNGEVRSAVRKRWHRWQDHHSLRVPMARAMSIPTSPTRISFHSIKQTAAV
T3 sequence (P24387 whole entry): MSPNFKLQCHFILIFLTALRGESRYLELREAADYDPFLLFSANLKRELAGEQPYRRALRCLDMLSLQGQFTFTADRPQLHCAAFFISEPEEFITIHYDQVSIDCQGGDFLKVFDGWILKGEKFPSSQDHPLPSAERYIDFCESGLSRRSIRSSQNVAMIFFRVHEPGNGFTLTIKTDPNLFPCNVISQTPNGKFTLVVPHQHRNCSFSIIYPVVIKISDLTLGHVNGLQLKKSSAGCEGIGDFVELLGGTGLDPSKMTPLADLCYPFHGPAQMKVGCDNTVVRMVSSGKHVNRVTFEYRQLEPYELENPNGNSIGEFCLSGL

[7] = target: T3, Corticotropin-releasing factor receptor 2/Corticotropin-releasing factor-binding protein; assay: activators of CRF receptor 2 with binding protein – uHTS hits, confirmation (AID 602473); assay type: functional; conditions: read-out: EC50_Mean
[8] = blockers of CRF-binding protein–CRF-R2 complex – cell-based, uHTS hits, 384-well, dose response (AID 651639); assay type: functional, Homo sapiens; conditions: read-out: IC50_Mean
[9] = target: Serine/threonine-protein kinase Chk2 (Homo sapiens, UniProt O96017); assay type: functional;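 note: CHEK2 entry within a kinome-wide screening panel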
[10] = target: RAC-gamma serine/threonine-protein kinase (Homo sapiens, UniProt Q9Y243); assay type: functional
[11] = target: Cyclin-dependent kinase 1 (Homo sapiens, UniProt P06493); assay type: functional;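 note: Kinome-wide panel profiling, with the target listed as panel member CDC2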
Chain of Cyclin-dependent kinase 1 (P06493 whole entry): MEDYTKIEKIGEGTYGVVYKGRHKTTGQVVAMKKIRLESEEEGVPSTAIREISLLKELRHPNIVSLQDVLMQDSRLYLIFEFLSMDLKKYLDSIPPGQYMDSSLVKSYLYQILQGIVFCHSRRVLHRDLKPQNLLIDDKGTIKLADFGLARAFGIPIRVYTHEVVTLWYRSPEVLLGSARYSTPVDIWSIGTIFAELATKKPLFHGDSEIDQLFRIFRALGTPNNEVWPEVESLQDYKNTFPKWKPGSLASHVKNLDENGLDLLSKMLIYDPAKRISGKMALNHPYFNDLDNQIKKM

[12] = target: Serine/threonine-protein kinase pim-1 (Homo sapiens, UniProt P11309); assay type: functional
Chain of Serine/threonine-protein kinase pim-1 (P11309 whole entry): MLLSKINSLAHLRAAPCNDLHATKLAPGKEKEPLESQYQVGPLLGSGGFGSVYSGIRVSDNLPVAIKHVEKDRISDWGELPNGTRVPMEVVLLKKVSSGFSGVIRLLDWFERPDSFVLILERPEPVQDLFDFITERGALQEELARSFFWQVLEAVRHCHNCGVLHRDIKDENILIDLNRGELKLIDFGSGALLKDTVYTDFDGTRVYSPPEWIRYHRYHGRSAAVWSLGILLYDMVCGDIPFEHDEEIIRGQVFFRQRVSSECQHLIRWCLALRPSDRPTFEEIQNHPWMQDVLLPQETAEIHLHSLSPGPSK

[13] = target: Cyclin-dependent kinase 2 (Homo sapiens, UniProt P24941); assay type: functional;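 note: CDK2 measured as one member of a broad kinome profiling panel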
[14] = target: 5'-AMP-activated protein kinase catalytic subunit alpha-1 (Homo sapiens, UniProt Q13131); assay type: functional
[15] = target: Serine/threonine-protein kinase PLK1 (Homo sapiens, UniProt P53350); assay type: functional;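 note: PLK1 measured as one member of a kinome-wide profiling panel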
Chain of Serine/threonine-protein kinase PLK1 (P53350 whole entry): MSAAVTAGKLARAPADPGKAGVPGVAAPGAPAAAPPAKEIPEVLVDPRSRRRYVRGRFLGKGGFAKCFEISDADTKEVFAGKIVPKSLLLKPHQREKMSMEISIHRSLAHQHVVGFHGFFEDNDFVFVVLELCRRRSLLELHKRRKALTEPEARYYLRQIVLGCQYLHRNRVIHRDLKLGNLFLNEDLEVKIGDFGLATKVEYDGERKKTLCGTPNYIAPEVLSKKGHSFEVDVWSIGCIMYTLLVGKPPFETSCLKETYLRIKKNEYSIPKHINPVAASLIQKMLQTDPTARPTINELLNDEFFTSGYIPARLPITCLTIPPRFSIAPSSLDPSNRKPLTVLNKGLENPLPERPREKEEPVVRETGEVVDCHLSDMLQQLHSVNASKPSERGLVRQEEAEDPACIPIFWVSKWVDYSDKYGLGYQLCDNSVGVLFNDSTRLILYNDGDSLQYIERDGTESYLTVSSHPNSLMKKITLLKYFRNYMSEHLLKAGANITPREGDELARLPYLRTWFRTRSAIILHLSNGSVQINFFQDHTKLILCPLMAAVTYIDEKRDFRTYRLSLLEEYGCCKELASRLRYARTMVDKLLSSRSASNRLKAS

[16] = target: Protein kinase C zeta type (Homo sapiens, UniProt Q05513); assay type: functional;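 note: measured as one member of a broad kinase profiling panel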
Chain of Protein kinase C zeta type (Q05513 whole entry): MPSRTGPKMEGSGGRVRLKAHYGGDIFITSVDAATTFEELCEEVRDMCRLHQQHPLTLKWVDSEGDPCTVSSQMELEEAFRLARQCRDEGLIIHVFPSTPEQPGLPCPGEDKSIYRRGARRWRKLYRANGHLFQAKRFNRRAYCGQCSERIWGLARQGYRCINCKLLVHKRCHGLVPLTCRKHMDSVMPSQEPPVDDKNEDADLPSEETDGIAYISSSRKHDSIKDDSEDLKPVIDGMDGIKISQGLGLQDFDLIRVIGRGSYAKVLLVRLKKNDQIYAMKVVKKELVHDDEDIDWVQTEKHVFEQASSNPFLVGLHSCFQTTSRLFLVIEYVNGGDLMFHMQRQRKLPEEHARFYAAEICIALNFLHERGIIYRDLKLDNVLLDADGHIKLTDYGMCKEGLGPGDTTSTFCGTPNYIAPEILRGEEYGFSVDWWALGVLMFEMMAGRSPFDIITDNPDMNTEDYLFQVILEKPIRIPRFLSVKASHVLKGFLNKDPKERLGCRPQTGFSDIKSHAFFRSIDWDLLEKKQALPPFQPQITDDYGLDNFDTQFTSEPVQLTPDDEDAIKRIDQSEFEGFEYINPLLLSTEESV

[17] = target: RAC-alpha serine/threonine-protein kinase (Homo sapiens, UniProt P31749); assay type: functional;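 note: AKT1 affinity measured as one member of a kinome-wide kinase profiling panel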
Chain of RAC-alpha serine/threonine-protein kinase (P31749 whole entry): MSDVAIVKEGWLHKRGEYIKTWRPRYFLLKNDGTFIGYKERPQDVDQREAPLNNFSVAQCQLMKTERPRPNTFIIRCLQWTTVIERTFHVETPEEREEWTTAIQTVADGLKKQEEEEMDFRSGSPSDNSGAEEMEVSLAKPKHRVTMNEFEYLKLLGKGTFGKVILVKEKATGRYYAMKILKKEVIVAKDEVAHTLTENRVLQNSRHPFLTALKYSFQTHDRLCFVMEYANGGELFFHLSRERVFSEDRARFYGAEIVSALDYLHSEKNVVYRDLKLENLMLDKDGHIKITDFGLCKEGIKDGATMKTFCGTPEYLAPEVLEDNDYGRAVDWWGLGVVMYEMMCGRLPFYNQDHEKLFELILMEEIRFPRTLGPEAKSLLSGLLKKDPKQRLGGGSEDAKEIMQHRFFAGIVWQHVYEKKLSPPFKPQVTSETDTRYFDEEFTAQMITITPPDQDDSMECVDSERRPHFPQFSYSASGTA

[18] = target: Serine/threonine-protein kinase MRCK alpha (Homo sapiens, UniProt Q5VT25); assay type: functional
[19] = target: Serine/threonine-protein kinase Chk1 (Homo sapiens, UniProt O14757); assay type: functional;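 note: measured as one member of a kinome-wide kinase profiling panel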
[20] = target: MAP kinase-activated protein kinase 2 (Homo sapiens, UniProt P49137); assay type: functional;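 note: measured as one member of a kinome-wide kinase panel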
Chain of MAP kinase-activated protein kinase 2 (P49137 whole entry): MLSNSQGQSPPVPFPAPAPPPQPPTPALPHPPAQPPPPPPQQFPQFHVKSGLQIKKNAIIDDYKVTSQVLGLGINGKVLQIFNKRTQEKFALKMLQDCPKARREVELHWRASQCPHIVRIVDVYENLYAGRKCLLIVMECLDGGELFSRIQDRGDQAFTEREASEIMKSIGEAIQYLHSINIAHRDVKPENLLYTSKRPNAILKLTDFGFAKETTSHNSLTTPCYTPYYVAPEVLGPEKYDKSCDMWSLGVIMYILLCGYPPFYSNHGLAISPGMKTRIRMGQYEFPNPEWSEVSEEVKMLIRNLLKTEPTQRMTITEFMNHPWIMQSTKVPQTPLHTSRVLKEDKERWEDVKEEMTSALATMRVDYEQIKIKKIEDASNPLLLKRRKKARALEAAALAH

[21] = target: Ephrin type-A receptor 2 (Homo sapiens, UniProt P29317); assay type: functional;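 note: EPHA2 tested as one member of a kinome-wide kinase panel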
[22] = target: Protein kinase C gamma type (Homo sapiens, UniProt P05129); assay type: functional
[23] = target: Protein kinase C delta type (Homo sapiens, UniProt Q05655); assay type: functional
[24] = target: Casein kinase II subunit alpha (Homo sapiens, UniProt P68400); assay type: functional
Chain of Casein kinase II subunit alpha (P68400 whole entry): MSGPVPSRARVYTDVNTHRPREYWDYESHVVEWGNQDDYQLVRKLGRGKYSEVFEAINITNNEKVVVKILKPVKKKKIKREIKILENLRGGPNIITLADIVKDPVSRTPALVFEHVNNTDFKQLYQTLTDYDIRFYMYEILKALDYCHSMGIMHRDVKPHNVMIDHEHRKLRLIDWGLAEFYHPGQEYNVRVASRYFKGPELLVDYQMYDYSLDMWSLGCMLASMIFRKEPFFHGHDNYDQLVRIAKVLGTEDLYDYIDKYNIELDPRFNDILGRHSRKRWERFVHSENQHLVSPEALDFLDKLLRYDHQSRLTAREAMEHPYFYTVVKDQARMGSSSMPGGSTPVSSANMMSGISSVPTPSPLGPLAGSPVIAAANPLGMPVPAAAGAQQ

[25] = target: Serine/threonine-protein kinase PLK3 (Homo sapiens, UniProt Q9H4B4); assay type: functional
Chain of Serine/threonine-protein kinase PLK3 (Q9H4B4 whole entry): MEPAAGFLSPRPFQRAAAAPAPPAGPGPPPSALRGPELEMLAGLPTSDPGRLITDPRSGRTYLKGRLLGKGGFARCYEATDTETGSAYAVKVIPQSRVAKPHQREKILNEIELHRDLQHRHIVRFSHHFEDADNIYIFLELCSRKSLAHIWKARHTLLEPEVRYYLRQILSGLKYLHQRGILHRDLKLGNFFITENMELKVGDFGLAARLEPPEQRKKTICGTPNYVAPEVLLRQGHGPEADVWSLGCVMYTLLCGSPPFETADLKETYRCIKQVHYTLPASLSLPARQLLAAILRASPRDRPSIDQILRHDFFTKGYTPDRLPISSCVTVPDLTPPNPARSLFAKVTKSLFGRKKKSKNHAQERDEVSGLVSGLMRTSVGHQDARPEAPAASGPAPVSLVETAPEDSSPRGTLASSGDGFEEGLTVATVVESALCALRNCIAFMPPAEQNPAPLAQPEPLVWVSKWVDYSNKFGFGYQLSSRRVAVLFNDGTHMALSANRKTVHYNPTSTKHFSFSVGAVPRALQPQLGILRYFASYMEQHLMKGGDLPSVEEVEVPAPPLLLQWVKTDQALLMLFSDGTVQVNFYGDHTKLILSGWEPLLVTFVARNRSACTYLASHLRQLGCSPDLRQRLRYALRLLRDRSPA

[26] = target: T4, ATP-dependent translocase ABCB1 (Homo sapiens, UniProt P08183); assay: inhibition of BCRP-mediated JC-1 efflux – Ig-MXP3 cells, flow cytometry, set 2, dose response (AID 504566); assay type: functional; conditions: read-out: EC50_MICROM_;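 note: flow cytometry median green fluorescence of retained JC-1 dye; potency of efflux pump inhibition measured as rising substrate retention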
T4 sequence (P08183 whole entry): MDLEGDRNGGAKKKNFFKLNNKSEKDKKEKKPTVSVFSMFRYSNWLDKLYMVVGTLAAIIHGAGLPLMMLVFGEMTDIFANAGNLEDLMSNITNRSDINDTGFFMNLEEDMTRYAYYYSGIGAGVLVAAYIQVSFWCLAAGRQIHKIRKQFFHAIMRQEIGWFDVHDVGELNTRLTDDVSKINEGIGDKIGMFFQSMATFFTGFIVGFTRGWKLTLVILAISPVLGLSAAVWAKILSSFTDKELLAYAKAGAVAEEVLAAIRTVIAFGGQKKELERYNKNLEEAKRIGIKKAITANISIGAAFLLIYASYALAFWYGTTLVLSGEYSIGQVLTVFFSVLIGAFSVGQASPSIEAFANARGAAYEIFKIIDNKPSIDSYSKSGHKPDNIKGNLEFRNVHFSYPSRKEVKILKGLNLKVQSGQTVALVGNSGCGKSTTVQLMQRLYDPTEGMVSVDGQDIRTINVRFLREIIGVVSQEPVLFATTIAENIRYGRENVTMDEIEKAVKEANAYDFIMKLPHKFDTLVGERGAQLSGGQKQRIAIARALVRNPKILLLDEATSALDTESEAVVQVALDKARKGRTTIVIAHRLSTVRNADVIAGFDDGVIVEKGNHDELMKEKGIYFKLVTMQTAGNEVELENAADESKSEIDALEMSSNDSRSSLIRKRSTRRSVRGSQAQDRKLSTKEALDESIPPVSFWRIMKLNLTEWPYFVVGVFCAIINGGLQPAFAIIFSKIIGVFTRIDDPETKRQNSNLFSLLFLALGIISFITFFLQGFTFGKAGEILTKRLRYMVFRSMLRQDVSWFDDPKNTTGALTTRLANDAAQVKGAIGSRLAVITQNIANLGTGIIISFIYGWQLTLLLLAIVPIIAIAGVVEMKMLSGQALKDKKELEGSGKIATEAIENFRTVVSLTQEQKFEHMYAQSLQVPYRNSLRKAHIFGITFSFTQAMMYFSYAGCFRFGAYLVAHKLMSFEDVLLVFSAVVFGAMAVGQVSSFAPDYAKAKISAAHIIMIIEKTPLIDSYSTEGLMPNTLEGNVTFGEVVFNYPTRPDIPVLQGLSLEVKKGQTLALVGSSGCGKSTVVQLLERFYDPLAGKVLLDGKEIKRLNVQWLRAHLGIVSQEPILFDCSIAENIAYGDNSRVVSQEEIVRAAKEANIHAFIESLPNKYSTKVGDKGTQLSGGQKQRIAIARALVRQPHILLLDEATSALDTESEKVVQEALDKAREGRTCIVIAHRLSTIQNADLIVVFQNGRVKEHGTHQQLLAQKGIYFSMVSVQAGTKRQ

[27] = target: T4, ATP-dependent translocase ABCB1; assay: P-gp JC-1 efflux blockade concentration-response – Jurkat-DNR cells, flow cytometry, set 2, dose response (AID 504569); assay type: functional; conditions: read-out: EC50_MICROM_;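 note: potency of pump inhibitors that raise cellular JC-1 green fluorescence up to the nicardipine level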

SMILES: COc1ccc(C(=O)/C=C/C(=O)N(CC(=O)NC2CCCCC2)Cc2cccs2)c(O)c1
- IC50 [1]: 24.7 µM (inactive)
- AC50 [2]: 5.53 µM (active)
- IC50 [3]: 4.66 µM (active)
- AC50 [4]: 2.98 µM (active)
- Absolute IC50 (XBP1) [5]: 10 µM

SMILES: N#Cc1c(C(F)(F)F)cc(-c2ccc(Cl)cc2)nc1O
- IC50 [6]: 4.16 µM (active)
- EC50 [7]: > 53 µM (inactive)
- IC50 [8]: > 20 µM (inactive)

SMILES: Cn1ncc2c1CCCC2=O
- Ki [9]: > 25.1 µM (inactive)
- Ki [10]: > 25.1 µM (inactive)
- Ki [11]: > 20 µM (inactive)
- Ki [12]: > 25.1 µM (inactive)
- Ki [13]: > 20 µM (inactive)
- Ki [14]: > 25.1 µM (inactive)
- Ki [15]: 10 µM (active)
- Ki [16]: > 20 µM (inactive)
- Ki [17]: > 20 µM (inactive)
- Ki [18]: > 25.1 µM (inactive)
- Ki [19]: > 20 µM (inactive)
- Ki [20]: > 20 µM (inactive)
- Ki [21]: > 20 µM (inactive)
- Ki [22]: > 20 µM (inactive)
- Ki [23]: > 20 µM (inactive)
- Ki [24]: 15.8 µM (active)
- Ki [25]: 2 µM (active)

SMILES: COc1ccc(-c2cc3nc(-c4ccccc4)cc(N4CCN(C(=O)c5ccco5)CC4)n3n2)cc1
- EC50 [26]: 1.28 µM (active)
- EC50 [27]: 3.35 µM (active)

— ChEMBL document CHEMBL1201862, “PubChem BioAssay data set” (2004)
